In patent US20040241194A1, “Food supplement for animals” (Phytosynthese, priority 2001, published 2004):

Experiments:
[1] = Influence on growth, study on white free-range chickens; type: in vivo
Procedure: This test is conducted under the same conditions by administering 2 kg of the composition of the invention per tonne to four batches of chickens.

[2] = Influence on growth of chickens, open-label study versus monensin; type: in vivo; details: for Mean daily weight gain: composition at 1.5 kg per tonne
Procedure: The parameters considered are the performance index and the mean daily weight gain. The composition of the invention is administered at the rate of 1.5 kg per tonne.

## CC[C@@]1([C@@H]2O[C@@H]([C@H]3O[C@@](O)(CO)[C@H](C)C[C@@H]3C)C[C@@H]2C)CC[C@H]([C@]2(C)CC[C@]3(C[C@H](O)[C@@H](C)[C@@H]([C@@H](C)[C@@H](OC)[C@H](C)C(=O)O)O3)O2)O1 [Control, monensin]
[1]; General Mean
  Feed conversion index (quantity of feed for obtaining 1 kg of chicken): 2.979
  Mean weight: 2.116 kg
[1]; General Mean, composition at 2 kg per tonne
  Mean daily weight gain: 25.46 g
[1]; Mean of the 1st third
  Feed conversion index (quantity of feed for obtaining 1 kg of chicken): 2.810
  Mean daily weight gain: 26.30 g
  Mean weight: 2.265 kg
[1]; Mean of the 2nd third
  Feed conversion index (quantity of feed for obtaining 1 kg of chicken): 2.960
  Mean daily weight gain: 25.48 g
  Mean weight: 2.131 kg
[1]; Mean of the 3rd third
  Feed conversion index (quantity of feed for obtaining 1 kg of chicken): 3.167
  Mean daily weight gain: 24.64 g
  Mean weight: 2.054 kg
[2]; Table VI batch
  Mean weight: 2.083 kg
  Performance index: 87
  Mean daily weight gain: 25.32 g
[2]; Table VII batch
  Mean weight: 2.169 kg
  Performance index: 95
  Mean daily weight gain: 26.46 g
